# Laboratory results published in patent publication US10683310B2, “Compound for specifically binding to amyloid β-protein” (NEUBORON MEDTECH LTD., priority 2015, dated 2020).
# Experiments:
# [1] = test system: amyloid β-protein deposition plaques; assay: Micro-PET scan of brain uptake in SAMP8 model mice and control mice; assay type: in vivo; settings: for Cerebral cortex uptake of radiopharmaceuticals, Model mice / hippocampus uptake of radiopharmaceuticals, Model mice: SAMP8 model mice; for Cerebral cortex uptake of radiopharmaceuticals, Control mice / hippocampus uptake of radiopharmaceuticals, Control mice: normal control mice
# Experimental: SAMP8 (senescence accelerated mouse prone 8) mice are the most common animal model of AD (Alzheimer's disease), in its brain there are a large number of amyloid deposition plaque. In this example, SAMP8 mice were used as model mice, and the normal mice were used as the control mice. Both the model mice and the control mice were 10 months old. The two mice were injected with 6-borono-2-(4-methylaminophenyl)benzothiazole containing labeling, and the Micro-PET scan is used to study whether 6-borono-2-(4-methylaminophenyl)benzothiazole and amyloid β-protein have specific binding properties. Model mice and control mice weighing 31.5±0.3 g were selected, 31.0±0.6 μCi of ^11C labelled 6-borono-2-(4-methylaminophenyl)benzothiazole were injected thereto, and Micro-PET of Model INVEON from Siemens were used for scan, where the scanning window was 350-650 KeV.
# It is well known to those skilled in the art that the major cause of Alzheimer's disease is that the amyloid β-protein deposition plaques accumulate in the cerebral cortex and hippocampus of the brain. In this example, Micro-PET scanned and compared the brains of the model and control mice using PMOD software. And the absorption of radioactive 6-borono-2-(4-methylaminophenyl)benzothiazole in the cerebral cortex and hippocampus of SAMP8 model mice and control mice was determined, to further illustrate that the compound is capable of specifically binding to amyloid β-protein deposition plaques.
# [2] = stability in vitro of 11C-labeled compound determined by HPLC; assay type: physicochemical
# Experimental: The stability of IIC-labeled 6-borono-2-(4-methylaminophenyl)benzothiazole in vitro was determined by HPLC, at selected time of 30 min and 60 min. […] Therefore, the radioactive chemical purity of the IIC-labeled radioactive compound met the experimental requirements.
smiles,measurement,setting,value
CNc1ccc(-c2nc3ccc(B(O)O)cc3s2)cc1 [6-borono-2-(4-methylaminophenyl)benzothiazole],Cerebral cortex uptake Ratio (model mice/control mice),[1]; 5 min after injection,1.9
same,hippocampus uptake Ratio (model mice/control mice),[1]; 5 min after injection,1.9
same,Cerebral cortex uptake Ratio (model mice/control mice),[1]; 15 min after injection,1.9
same,hippocampus uptake Ratio (model mice/control mice),[1]; 15 min after injection,2.3
same,Cerebral cortex uptake Ratio (model mice/control mice),[1]; 25 min after injection,2.4
same,hippocampus uptake Ratio (model mice/control mice),[1]; 25 min after injection,3.2
same,Cerebral cortex uptake Ratio (model mice/control mice),[1]; 35 min after injection,2.7
same,hippocampus uptake Ratio (model mice/control mice),[1]; 35 min after injection,3.2
same,"Cerebral cortex uptake of radiopharmaceuticals, Model mice",[1]; 5 min after injection,3.03 % ID/g
same,"hippocampus uptake of radiopharmaceuticals, Model mice",[1]; 5 min after injection,3.44 % ID/g
same,"Cerebral cortex uptake of radiopharmaceuticals, Model mice",[1]; 15 min after injection,2.88 % ID/g
same,"hippocampus uptake of radiopharmaceuticals, Model mice",[1]; 15 min after injection,3.50 % ID/g
same,"Cerebral cortex uptake of radiopharmaceuticals, Model mice",[1]; 25 min after injection,2.79 % ID/g
same,"hippocampus uptake of radiopharmaceuticals, Model mice",[1]; 25 min after injection,3.45 % ID/g
same,"Cerebral cortex uptake of radiopharmaceuticals, Model mice",[1]; 35 min after injection,2.68 % ID/g
same,"hippocampus uptake of radiopharmaceuticals, Model mice",[1]; 35 min after injection,3.27 % ID/g
same,brain radiopharmaceutical absorption (PET image),"[1]; SAMP8 model mouse versus control mice, 30 min after injection, FIGS. 5A and 5B",accumulated a large amount of radiopharmaceuticals relative to the brain of the control mice
same,"Cerebral cortex uptake of radiopharmaceuticals, Control mice",[1]; 5 min after injection,1.61 % ID/g
same,"hippocampus uptake of radiopharmaceuticals, Control mice",[1]; 5 min after injection,1.80 % ID/g
same,"Cerebral cortex uptake of radiopharmaceuticals, Control mice",[1]; 15 min after injection,1.48 % ID/g
same,"hippocampus uptake of radiopharmaceuticals, Control mice",[1]; 15 min after injection,1.49 % ID/g
same,"Cerebral cortex uptake of radiopharmaceuticals, Control mice",[1]; 25 min after injection,1.17 % ID/g
same,"hippocampus uptake of radiopharmaceuticals, Control mice",[1]; 25 min after injection,1.09 % ID/g
same,"Cerebral cortex uptake of radiopharmaceuticals, Control mice",[1]; 35 min after injection,0.99 % ID/g
same,"hippocampus uptake of radiopharmaceuticals, Control mice",[1]; 35 min after injection,1.01 % ID/g
same,radioactive chemical purity (stability in vitro),[2]; 30 min,100%
same,radioactive chemical purity (stability in vitro),[2]; 60 min,100%
